These results are taken from PMC5500991, “Substituted arylsulphonamides as inhibitors of perforin-mediated lysis” (European Journal of Medicinal Chemistry, 2017).

On the set-up of series [1]: method as in PMID 28110869. Particulars: parent remaining after 30 min, rat microsomes; cited from earlier work.
The nature of series [2]: Toxicity to KHYG1 NK cells (Trypan blue exclusion). It is filed as cell-based, human. Particulars: human, viability of KHYG1 NK cells after 24 h, n = 3.
The target of series [3] is T1, perforin delivered by KHYG1 NK cells (Homo sapiens, UniProt P14222).
T1 construct: The use of whole NK cells to deliver perforin provides a more realistic model of conditions in vivo; endogenous in cells; host or cells: KHYG1 human NK cells (effector); K562 leukemia target cells
T1 sequence (P14222 22-555): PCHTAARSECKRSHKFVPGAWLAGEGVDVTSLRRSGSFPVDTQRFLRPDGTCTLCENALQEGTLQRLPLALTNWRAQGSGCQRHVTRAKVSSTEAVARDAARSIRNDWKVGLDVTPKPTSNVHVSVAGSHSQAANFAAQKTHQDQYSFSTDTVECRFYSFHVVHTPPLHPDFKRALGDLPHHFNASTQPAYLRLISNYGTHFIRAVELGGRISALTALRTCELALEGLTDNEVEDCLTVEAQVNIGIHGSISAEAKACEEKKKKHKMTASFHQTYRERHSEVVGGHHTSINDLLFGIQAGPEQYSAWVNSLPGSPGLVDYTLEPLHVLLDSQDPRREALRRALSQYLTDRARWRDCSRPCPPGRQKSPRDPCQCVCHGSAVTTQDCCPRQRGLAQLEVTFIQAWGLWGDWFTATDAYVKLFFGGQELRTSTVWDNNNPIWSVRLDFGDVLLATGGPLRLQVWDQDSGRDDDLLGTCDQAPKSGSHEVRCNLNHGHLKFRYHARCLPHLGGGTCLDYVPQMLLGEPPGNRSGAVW
Briefly: KHYG1 inhibitory assay: lysis of 51Cr-labelled K562 target cells by KHYG1 NK cells. Conditions: 51Cr-labelled K562 target cells co-incubated with KHYG1 human NK cells, vs untreated control, n = 4. It is filed as cell-based. The method, then:
The inhibitory function is then determined by identifying the number of untreated or inhibitor treated effector cells required to kill the same number of targets.

Series [4] in a line: In vivo plasma pharmacokinetics in mice. Conditions: mouse plasma, 10 mg/kg i.p. in 20% hydroxypropyl-β-cyclodextrin. As to the method: The in vivo PK parameters were measured for seven compounds selected on the basis of the in vitro assessment described above. Plasma pharmacokinetics were determined in male CD-1 mice for compounds 3, 10, 11, 26, 50, 58 and 59 (Table 6). Blood samples were collected at 5–8 time-points after dosing the compounds at 10 mg/kg in a solution of 20% hydroxypropyl-β-cyclodextrin by intraperitoneal (IP) injection. For analysis of the samples, chromatographic conditions were optimised by HPLC for each compound of interest and an internal standard. A liquid chromatography with tandem mass spectrometry (LC-MS/MS) method was then developed and validated for quantitation of each analyte.
PK studies were carried out in female C57BL/6J (female) mice using IP administration of test compound, dosing at 10 mg/kg in a solution of 20% hydroxypropyl-β-cyclodextrin. Mice (n=3 at each time point) were culled with excess inhalation of CO2 and blood collected by cardiac puncture at 5-8 time points after dosing in ice cold EDTA tubes. Plasma was separated by centrifuging at 6000 rpm for 5 min and stored at -80°C until analysis by LC-MS/MS. Frozen plasma was thawed on wet ice on the day of analysis. Ten μL of sample was transferred to a clean microcentrifuge tube and mixed with ice cold acetonitrile (40 μL containing internal standard) to precipitate the plasma proteins. The tubes were centrifuged at 13000 rpm for 5 min to obtain a clear supernatant which was mixed with 0.01% formic acid-water (1:2). Ten to twenty µL was injected into the LC-MS/MS to measure the analyte concentration in the sample. The samples were quantitated against a calibration curve of known analyte concentrations run in test species blank plasma (sourced from Innovative Research, USA). The concentration vs time data was then fitted into a pharmacokinetic software program (Phoenix WinNonlin v6.2) to calculate the PK parameters including T½, Cmax and AUC0-∞.

On the set-up of series [5]: method as in PMID 28110869. Particulars: sodium salt in water at room temperature; cited from earlier work.
Details of series [6]: method as in PMID 28110869. Conditions: sodium salt, 24 h at 20 °C in water; cited from earlier work.

On to `CN1Cc2cc(-c3ccc(-c4cncc(NS(=O)(=O)c5ccc(F)cc5F)c4)s3)ccc2C1=O` [Compound 3], for which the “Microsome Stability (%) Rat” value in series [1] is given as 99%. In series [2], this compound yielded a viability at 24 h, 10 µM of 100%. Also, the inhibition at 10 µM in series [3] was 67.5 ± 17.5%. Further, in series [4], the “AUC0-∞” value was 220 µM·h, the peak level (Cmax) was 10 µM and the T1/2 is reported as 12.0 h. Moreover, in series [5], the Solubility was 1080 µg/mL. The “Stability in Solution (% parent remaining)” value in series [6] was 82%.
